In ChEMBL document CHEMBL3507680, “University of Dundee, Gates Library screen for HepG2 cell viability”:
Values joined by “and” are separate entries in the source; they are usually repeats but may differ in a detail not shown here. Identical values can stand only once.

Experiment: Human HepG2 cell viability assay in 384 well format
Type: toxicity, cell-based
Design: dose 125 nL, time 70.5 hour; cytotoxicity at 70.5 h: concentration not given beside the values
Settings: for cytotoxicity at 70.5 h: HepG2 cells, read-out: Inhibition

O=C(NCCSc1ccccc1F)NCc1cccnc1
cytotoxicity at 70.5 h: -6.59%

Cc1oc(-c2ccco2)nc1CN1CCCC(Cn2cncn2)C1 (stereo unspecified)
cytotoxicity at 70.5 h: 39.6%

COC(=O)c1cc(OCC2CCC2)cc(C(=O)N[C@@H]2CCCNC2)c1
cytotoxicity at 70.5 h: -18.2%

COCCC(=O)N1CCC2(COCc3cnc(N4CCOCC4)nc32)C1 (stereo unspecified)
cytotoxicity at 70.5 h: -15.1%

O=C(NCc1ccc2c(c1)OCO2)c1ccc(N2CCCCCC2)nc1
cytotoxicity at 70.5 h: 2.76%

COc1ccc([C@@H]2C[C@H](NC(C)=O)C[C@H](Cc3ccccc3)O2)cn1
cytotoxicity at 70.5 h: -6.79%

c1cnn([C@@H]2CN(Cc3nccs3)[C@@H]3CCCO[C@@H]32)c1
cytotoxicity at 70.5 h: -6.1%

COc1ccc(Nc2ccc(C#N)cn2)cc1N1CCCC1=O
cytotoxicity at 70.5 h: 5.76%

Cc1c(C(=O)OCC2CC(=O)N(c3ccccc3)C2)cnn1C(C)C (stereo unspecified)
cytotoxicity at 70.5 h: -0.00833%

CCC(C)NC(=O)c1cc(S(N)(=O)=O)c(Br)s1 (stereo unspecified)
cytotoxicity at 70.5 h: -6.88%

CCOC(=O)N1CCN(C(=O)Cn2ccc3ncccc3c2=O)CC1
cytotoxicity at 70.5 h: -8.19%

CCCn1nc2c(cc1=O)CN(c1ncnc3sccc13)CC2
cytotoxicity at 70.5 h: -10.8%

CCOc1ccccc1C(CC(=O)Nc1ccccc1F)NC(C)=O (stereo unspecified)
cytotoxicity at 70.5 h: -6.84%

CCc1nc(CC(=O)N2CCCC2Cn2cccn2)cs1 (stereo unspecified)
cytotoxicity at 70.5 h: 2.11%

O=C(NCc1cccc(F)c1)NCC(O)c1cccc(F)c1 (stereo unspecified)
cytotoxicity at 70.5 h: 20.3%

CC(C)CCn1c(=O)nc2n1C(=O)N(c1ccc(F)cc1)C2
cytotoxicity at 70.5 h: 22.3%

Cc1cc(C)cc(C2(C(=O)NCC3CCN(CC(F)(F)F)C3)CC2)c1 (stereo unspecified)
cytotoxicity at 70.5 h: -2.93%

Cc1cccc(C(=O)N2CCCC(c3noc(C)n3)C2)n1 (stereo unspecified)
cytotoxicity at 70.5 h: -1.99%

COCCN1CCC2(C1)c1ccccc1S(=O)(=O)N2Cc1ccccc1 (stereo unspecified)
cytotoxicity at 70.5 h: 1.99%

Cc1ccc(-c2noc(CC[C@@H]3CCCN4CCCC[C@H]34)n2)nn1
cytotoxicity at 70.5 h: -3.37%

CCSCCNC(=O)C(c1cccc(F)c1)N(C)C (stereo unspecified)
cytotoxicity at 70.5 h: -6.8%

CC(=O)N1C[C@@H]2C(=O)N(C)C3(CCN(C(=O)C(C)C)CC3)[C@@H]2C1
cytotoxicity at 70.5 h: -7.63%

NCC(CO)Cc1cccc(OC(F)(F)F)c1 (stereo unspecified)
cytotoxicity at 70.5 h: 2.39%

c1cc(-c2noc([C@@H]3CCCN3C3CCC3)n2)cc(N2CCCC2)n1
cytotoxicity at 70.5 h: -6.56%

Cc1cc(CNC(=O)c2ccc(C(C)N3CCCCC3)o2)[nH]n1 (stereo unspecified)
cytotoxicity at 70.5 h: -5.86%

COc1c(C)cnc(CN(C)C2CCCCC2)c1C
cytotoxicity at 70.5 h: 8.25%

Cc1cnc(NC(=O)c2cccc(CN(C)Cc3ccno3)c2)s1
cytotoxicity at 70.5 h: -4.32%

Cc1cc2nc(CN(C)c3ccccc3)cc(=O)n2o1
cytotoxicity at 70.5 h: 3.13%

COc1nc2c(cc1C(=O)N(C)Cc1[nH]nc3c1CCC3)CCC2
cytotoxicity at 70.5 h: 27.9%

N#Cc1cccnc1Oc1cc(F)c(CN2CCCC2)c(Cl)c1
cytotoxicity at 70.5 h: -1.54%

COc1cccc2ccc(N3CCC(O)(C(=O)O)CC3)nc12
cytotoxicity at 70.5 h: -16.9%

CNC(=O)[C@@]12CCCN(c3ncccn3)[C@@H]1CN(c1ncc(C)cn1)C2
cytotoxicity at 70.5 h: -4.37%

Cc1ccc(CN2C[C@H](N3CCOCC3)[C@@H]3OCCC[C@@H]32)o1
cytotoxicity at 70.5 h: -0.951%

Cc1ccc(NC(=O)Cn2ncc(SCC(N)=O)c(Cl)c2=O)cc1
cytotoxicity at 70.5 h: -7.72%

CCOC1CCN(C(=O)c2csc(S(N)(=O)=O)c2)CC1
cytotoxicity at 70.5 h: -4.71%

COc1ccccc1Oc1ncccc1CNC(=O)C1(C)CCCNC1 (stereo unspecified)
cytotoxicity at 70.5 h: -1.4%

CCc1nc(C)c([C@H]2CN(C)C[C@@H]2C(=O)Nc2ccc(OC)nc2)[nH]1
cytotoxicity at 70.5 h: -1.87%

OC(COc1ccccc1)CN1CCC(c2ccn[nH]2)CC1 (stereo unspecified)
cytotoxicity at 70.5 h: -13.1%

COCC(=O)N1CCN(Cc2nnc(C(C)(C)C)o2)CC1
cytotoxicity at 70.5 h: -1.83%

CCCOC1CCCN(c2ccnc(C(=O)NCc3ccco3)c2)C1 (stereo unspecified)
cytotoxicity at 70.5 h: -8.53%

CN(Cc1c(Cl)ccc2cccnc12)CC(C)(CO)CO
cytotoxicity at 70.5 h: -10.4%

Cc1ccc(CN2CCCC(c3cnccn3)C2)s1 (stereo unspecified)
cytotoxicity at 70.5 h: -1.38%

COc1ccc(OC)c2c(C)cc(N(CCO)CCO)nc12
cytotoxicity at 70.5 h: 19.5%

CCc1nnc(SCC(=O)N2CCc3[nH]nc(C4CCC4)c3C2)o1
cytotoxicity at 70.5 h: -2.31%

CC(C)N1CCCC(c2cc(C(F)(F)F)nc3nccn23)C1 (stereo unspecified)
cytotoxicity at 70.5 h: -0.494%

Cn1nc2c(c1NC(=O)c1cccs1)CCC2
cytotoxicity at 70.5 h: -12.2%

CC(NC(=O)COc1ccccc1I)C1CC1 (stereo unspecified)
cytotoxicity at 70.5 h: -1.97%

Cc1ccc(O)c(C(=O)N2CCC(CN3CCCCCC3)CC2)c1
cytotoxicity at 70.5 h: -6.42%

CSCc1noc(CNS(=O)(=O)c2cccc(C(=O)NC3CC3)c2)n1
cytotoxicity at 70.5 h: -10.1%

O=C(Cn1cc(-c2ccccc2)cn1)NC(C1CC1)C1CC1
cytotoxicity at 70.5 h: -5.32%

CCn1c(C)nnc1CN(C)C1CCN(CC2CCC2)C1 (stereo unspecified)
cytotoxicity at 70.5 h: 26.1%

O=C(c1ccc(Cl)c(Cl)c1)N1CCCCC1C1OCCO1 (stereo unspecified)
cytotoxicity at 70.5 h: -4.22%

COc1ccc(CCNC(=O)C2CC2)c(Cl)c1
cytotoxicity at 70.5 h: -1.42%

O[C@H]1CCN(CC2CC2)[C@H]1Cc1ccncc1
cytotoxicity at 70.5 h: -4.14%

O=C(c1ccc2c(c1)OCO2)N1CCCC(n2cccn2)C1 (stereo unspecified)
cytotoxicity at 70.5 h: -6.41%

COCc1n[nH]/c(=N/C(=O)COc2cnc(C)cc2O)s1
cytotoxicity at 70.5 h: -9.66%

c1csc(CN2CCc3nnc(COc4cncnc4)n3CC2)c1
cytotoxicity at 70.5 h: -6.3%

CN(C)C[C@H]1OC[C@@H]2CCN(S(=O)(=O)c3cccs3)C[C@@H]21
cytotoxicity at 70.5 h: 12.4%

Cc1nnsc1C(=O)N1CC(c2nc3ccccc3[nH]2)C1
cytotoxicity at 70.5 h: -14.1%

CNS(=O)(=O)c1ccc(CN2CCN3CCNC(=O)C3C2)cc1 (stereo unspecified)
cytotoxicity at 70.5 h: -6.1%

CN1C(=O)C(c2cccnc2)CC12CCN(CCO)CC2 (stereo unspecified)
cytotoxicity at 70.5 h: -0.847%

CN1CCN(c2ncnc3c2CCN(c2ncc(F)cn2)CC3)CC1
cytotoxicity at 70.5 h: -1.02%

Cc1csc2ncc(-c3ccnc(N4CCC[C@H](C(N)=O)C4)n3)c(=O)n12
cytotoxicity at 70.5 h: 14.4%

CCOC(=O)c1ccccc1NC(=O)CN(C)Cc1ccccc1Cl
cytotoxicity at 70.5 h: 3.31%

COc1ccccc1OCCCc1cncc(C(N)=O)c1
cytotoxicity at 70.5 h: -14.6%

CCCc1nc(NCC(=O)N2CCOCC2)c2c(n1)c(C)nn2CC
cytotoxicity at 70.5 h: 44.1%

O=c1[nH]c(CN2CCCC(Cn3cncn3)C2)nc2ccccc12 (stereo unspecified)
cytotoxicity at 70.5 h: -4.42%

COc1ccc(Cl)cc1CS(=O)(=O)Cc1cc(C)on1
cytotoxicity at 70.5 h: -5.88%

O=C(c1[nH]c2ccc(Cl)cc2c1Cl)N1CCC2(CC1)OCCO2
cytotoxicity at 70.5 h: -0.999%

CN(C)C(=O)N1Cc2nnn(CC3CC3)c2C(COCC2CC2)C1 (stereo unspecified)
cytotoxicity at 70.5 h: -6.92%

CSCC[C@@H](CO)NC(=O)c1sc(-c2ccc(Cl)cc2)nc1C
cytotoxicity at 70.5 h: -11.9%

COc1ccc2c(c1)OCC(CNC(=O)c1cnc(NC(C)C)nc1)C2 (stereo unspecified)
cytotoxicity at 70.5 h: 12.5%

CC1=Nc2c(c(=O)[nH]n2C2CCCC2)C(c2cccnc2)S1 (stereo unspecified)
Inhibition (hepg2, 70.5 h, 70.5 h): -2.319% and 7.616%

CC(=O)N1CCC(c2ncc(C(=O)Nc3ccc(F)cc3)c(C)n2)CC1
cytotoxicity at 70.5 h: 12.6%

CO[C@@H]1CCC[C@@H](N(C)C(=O)c2cc(F)ccc2F)[C@H]1O
cytotoxicity at 70.5 h: -3.32%

CCS(=O)(=O)N(C)C1CCN(C(=O)c2ccc(C)c(C)c2)CC1
cytotoxicity at 70.5 h: -8.23%

CC[C@H]1CN2CC[C@H]1C[C@@H]2CNCc1ccc(OC)cc1
cytotoxicity at 70.5 h: -3.31%

Cc1cc(C)n(C2=NC(NCCCO)c3c(sc4c3CCCC4)N2)n1 (stereo unspecified)
cytotoxicity at 70.5 h: -11.9%

CN(C)c1nc(N)nc(CSCCC(=O)Nc2ccc(F)cc2)n1
cytotoxicity at 70.5 h: -7.07%

O=c1[nH]cc(Nc2ccc(Cl)cc2)c(=O)[nH]1
cytotoxicity at 70.5 h: 29.9%

Cc1ccc(CC(=O)N2CCC(Nc3cccnn3)CC2)s1
cytotoxicity at 70.5 h: 0.908%
